Experimental data as given in US5541310A, “Herbicide resistant plants” (Ciba-Geigy Corporation, priority 1994, dated 1996).

Experiments:
wheat germ IGPD = test: IGPD enzyme activity / inhibitor assay with purified wheat germ IGPD; assay type: biochemical
Method: Purified IGPD may be used in assays to discover novel inhibitors of the enzyme, which inhibitors potentially would function as commercially viable herbicides. Typically, the inhibitory effect of a chemical on IGPD is determined by the absorbance difference at 370 nm using an absorbance coefficient of 10,400, which signifies the production of IAP from IGP. See, Ames et al., J. Biol. Chem. 212:687-697 (1957). Inhibitor solutions in various concentrations, e.g. 1 mM, 100 μM, 10 μM, and 1 μM, are added to the reaction mixture prior to the initiation of the enzyme reaction. A representative reaction mixture contains 50 mM Bis-Tris-propane-HCl (pH 6.6), 100 mM 2-mercaptoethanol, 1 mM MnCl2, 1 mM IGP, and between 2 and 5 mU of IGPD. Once IGP is added, the reaction is rim at 30° C., and is stopped by the addition of perchlorie acid up to 10% volume of the reaction mixture. […] Five volumes of 5N NaOH are added to the solution, and after two minutes, enolized IA is measured spectroscopically. […]
IGPD activity was determined by measuring imidazoleacetol obtained by hydrolyzing IAP. […] Five volumes of 5N NaOH were added to the solution, and after 2 minutes, the concentration of enolized imidazoleacetol was determined from the absorbance at 370 nm using the absorbance coefficient of 10,400 (Ames and Mitchell, 1955). […]

[1] = tested on: IGPD-G (IGPD-overexpressing line); test: Greenhouse plants treated with inhibitor, health visually scored; assay type: in vivo, Nicotiana tabacum cv. Xanthi-nc; design: key: 1 = severe stunting, severe chlorosis combined with necrosis; 2 = severe stunting, some interveinal chlorosis; 3 = moderate stunting, some interveinal chlorosis, pinnate leaves; 4 = moderate stunting, normal leaf morphology; 5 = healthy, with no symptoms
Method: (§1) To further evaluate resistance of the IGPD-overexpressing line IGPD-G, plants were grown in the greenhouse and treated with various concentrations of the inhibitor IRL 1803. After treatment, plants were photographed, and their health was visually scored.

Xanthi (untransformed) = test: as above; assay type: in vivo, Nicotiana tabacum cv. Xanthi-nc; design: key: 1 = severe stunting, severe chlorosis combined with necrosis; 2 = severe stunting, some interveinal chlorosis; 3 = moderate stunting, some interveinal chlorosis, pinnate leaves; 4 = moderate stunting, normal leaf morphology; 5 = healthy, with no symptoms
Method: as §1

[2] = tested on: Leaf disks of transgenic Nicotiana tabacum lines IGPD-C, E, and G; test: Leaf disk growth (weight) on MS agar containing IGPD inhibitor, transgenic lines versus wild type; assay type: in vivo, Nicotiana tabacum cv. Xanthi-nc; conditions: 30 ppm inhibitor on MS agar, after three weeks
Text: Leaf disks of Nicotiana tabacum cv. Xanthi-nc were infected with A. tumefaciens CIB542 harboring pCIB200IGPD as described by Horsch et al, Science 227:1229 (1985). Kanamycin-resistant shoots from 15 independent leaf disks were transferred to rooting medium, then transplanted to soil and the resulting plants grown to maturity in the greenhouse. Seed from these plants were collected and germinated on MS agar medium containing kanamycin. Ten individual kanamycin resistant seedlings from each independent primary transformant were grown to maturity in the greenhouse, and their seed collected. These seeds were germinated on MS agar medium conta/ning kanamycin.
Plant lines that gave rise to exclusively kanamycin resistant seedlings were homozygous for the inserted gene and were subjected to further analysis. Leaf disks of each of the 15 independent transgenie lines were excised with a paper punch and placed onto MS agar containing 0 or 30 ppm of a specific IGPD inhibitor represented by formula (II), namely: [drawing 11] After three weeks, two sets of 10 disks from each line were weighed, and the results recorded. Transgenie lines designated IGPD-C, E, and G were approximately 3-fold more resistant to the inhibitor than wild type, non-transformed plants.

[Mn+2] [manganese ions]
enhancement of the activity of the enzyme (wheat germ IGPD; manganese ions at a concentration of 0.5 mM): 7 fold | Km (wheat germ IGPD; read-out: Km value for Mn2+): ~110 µM

O=P(O)(O)[C@@H]1CCC[C@](O)(c2ncn[nH]2)C1 [IRL 1803]
Visual Score after Treatment ([1]; 1000 ppm): 4 | Visual Score after Treatment ([1]; 10000 ppm): 2 | Visual Score after Treatment (Xanthi (untransformed); 1000 ppm): 3 | Visual Score after Treatment (Xanthi (untransformed); 10000 ppm): 1

O=P(O)(O)C1CCCC(O)(c2ncn[nH]2)C1 (stereo not shown)
resistance to the inhibitor relative to wild type, non-transformed plants (leaf disk weight) [2]: approximately 3 fold
